Reference: ChEMBL document CHEMBL1201862, “PubChem BioAssay data set” (2004)
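Five compound concentrations were applied to cells in 96-well plates for 48 hours; endpoints were derived by simple linear interpolation of the resulting dose-response curve. GI50 marks 50% less growth.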 The source made the active and inactive calls. No stated cut-off is given here; in the data, active = GI50 up to about 1.1 µM and inactive = higher.

How the values were obtained:
Assay in all cases: NCI tumour cell line growth inhibition, 48 h
SF-295 = tested on: SF-295
HOP-92 = tested on: HOP-92
CCRF-CEM = tested on: CCRF-CEM
NCI-H460 = tested on: NCI-H460
786-0 = tested on: 786-0
HCC 2998 = tested on: HCC 2998
UACC-62 = tested on: UACC-62
RPMI-8226 = tested on: RPMI-8226
RXF 393 = tested on: RXF 393
HT-29 = tested on: HT-29
OVCAR-4 = tested on: OVCAR-4
LOX IMVI = tested on: LOX IMVI
M14 = tested on: M14
SF-539 = tested on: SF-539
ACHN = tested on: ACHN
IGROV-1 = tested on: IGROV-1
OVCAR-3 = tested on: OVCAR-3
HCT-15 = tested on: HCT-15
SNB-75 = tested on: SNB-75
A498 = tested on: A498

Compound | GI50 (SF-295) | GI50 (HOP-92) | GI50 (CCRF-CEM) | GI50 (NCI-H460) | GI50 (786-0) | GI50 (HCC 2998) | GI50 (UACC-62) | GI50 (RPMI-8226) | GI50 (RXF 393) | GI50 (HT-29) | GI50 (OVCAR-4) | GI50 (LOX IMVI) | GI50 (M14) | GI50 (SF-539) | GI50 (ACHN) | GI50 (IGROV-1) | GI50 (OVCAR-3) | GI50 (HCT-15) | GI50 (SNB-75) | GI50 (A498)
CC(C)(C)OC(=O)NC(Cc1ccccc1)C(=O)OCN1C(=O)C2C3C=CC(C2C1=O)C1C2C(=O)N(COC(=O)C(Cc4ccccc4)NC(=O)OC(C)(C)C)C(=O)C2C31 (stereo not given) | 34.4 µM (inactive) | 86.5 µM (inactive) | 2.67 µM (inactive) | 3.82 µM (inactive) | 28.2 µM (inactive) | 40 µM (inactive) | 44.8 µM (inactive) | 18.8 µM (inactive) | 22.7 µM (inactive) | 12.9 µM (inactive) | 37.1 µM (inactive) | 36.9 µM (inactive) | 38.9 µM (inactive) | 42.4 µM (inactive) | 40.6 µM (inactive) | 30.4 µM (inactive) | 63.1 µM (inactive) | 43.2 µM | 19 µM (inactive) | 25.9 µM (inactive)
O=C(CC(=O)c1cccc([N+](=O)[O-])c1)C(=O)Nc1ccccc1 | > 100 µM (inactive) | > 100 µM (inactive) | > 100 µM (inactive) | > 100 µM (inactive) | > 100 µM (inactive) | > 100 µM (inactive) | > 100 µM (inactive) | > 100 µM (inactive) | > 100 µM (inactive) | > 100 µM (inactive) | > 100 µM (inactive) | > 100 µM (inactive) | > 100 µM (inactive) | > 100 µM (inactive) | > 100 µM (inactive) | > 100 µM (inactive) | > 100 µM (inactive) | > 100 µM | > 100 µM (inactive) | > 100 µM (inactive)
CCCCCCCCCCCCCC(=O)O[C@H]1CC[C@H](NC(=O)[C@H](OC)[C@H](O)[C@@H](O)[C@H](O)/C=C/C(C)C)C(=O)N(C)C1 [BENGAMIDE B] | 0.00675 µM (active) | 0.00684 µM (active) | 0.0122 µM (active) | < 0.0015 µM (active) | 0.00457 µM (active) | 0.00195 µM (active) | 0.00807 µM (active) | 0.0895 µM (active) | 0.0615 µM (active) | 0.00479 µM (active) | 0.014 µM (active) | 0.00216 µM (active) | 0.0128 µM (active) | 0.0108 µM (active) | 0.00261 µM (active) | 0.00235 µM (active) | 0.00643 µM (active) | 0.028 µM | 0.105 µM (active) | > 15 µM (inactive)
O=C(O)/C=C/c1ccc(O)c(O)c1 [CAFFEIC ACID] | > 100 µM (inactive) | > 100 µM (inactive) | > 57.5 µM (inactive) | > 100 µM (inactive) | > 100 µM (inactive) | > 100 µM (inactive) | > 100 µM (inactive) | > 100 µM (inactive) | > 100 µM (inactive) | > 100 µM (inactive) | > 100 µM (inactive) | > 100 µM (inactive) | > 100 µM (inactive) | > 100 µM (inactive) | > 100 µM (inactive) | > 100 µM (inactive) | > 100 µM (inactive) | > 100 µM | > 24 µM (inactive) | > 100 µM (inactive)
